Columns and labels:
Ovis aries [1] = test: Anthelmintic activity against Haemonchus contortus nematode in sheep was determined as a function of 75 to >/= 90% egg reduction after p.o. administration; type: functional
[2] = Partition coefficient in n-octanol/ water system at pH= 7.0; type: physicochemical
Ovis aries [3] = test: Anthelmintic activity against Haemonchus contortus nematode in sheep was determined as a function of 50-75% egg reduction after p.o. administration; type: functional
Ovis aries [4] = test: Anthelmintic activity against Haemonchus contortus nematode in sheep was determined as a function of </= 50% egg reduction after i.v. administration; type: functional
Ovis aries [5] = test: Anthelmintic activity against Haemonchus contortus nematode in sheep was determined as a function of </=50% egg reduction after p.o. administration; type: functional
Ovis aries [6] = test: Anthelmintic activity against Haemonchus contortus nematode in sheep was determined as a function of >/= 90% egg reduction after i.v. administration; type: functional
Ovis aries [7] = test: Anthelmintic activity against Haemonchus contortus nematode in sheep was determined as a function of 75-90% egg reduction after p.o. administration; type: functional
Ovis aries [8] = test: Anthelmintic activity against Haemonchus contortus nematode in sheep was determined as a function of >/= 90% egg reduction after p.o. administration; type: functional

logD [2]	SMILES	Activity (Ovis aries [4])	Activity (Ovis aries [6])	also measured
7.2	CCN1C(=O)[C@H](C)OC(=O)[C@H](CC(C)C)N(CC)C(=O)[C@@H](Cc2ccccc2)OC(=O)[C@H](CC(C)C)N(CC)C(=O)[C@@H](C)OC(=O)[C@H](CC(C)C)N(CC)C(=O)[C@@H](Cc2ccccc2)OC(=O)[C@@H]1CC(C)C	–	–	Activity (Ovis aries [1]): 0.25
8.4	CCCN1C(=O)[C@H](C)OC(=O)[C@H](CC(C)C)N(CCC)C(=O)[C@@H](Cc2ccccc2)OC(=O)[C@H](CC(C)C)N(CCC)C(=O)[C@@H](C)OC(=O)[C@H](CC(C)C)N(CCC)C(=O)[C@@H](Cc2ccccc2)OC(=O)[C@@H]1CC(C)C	–	–	Activity (Ovis aries [3]): 0.25
3.1	C[C@@H]1OC(=O)[C@H](C)N(C)C(=O)[C@@H](Cc2ccccc2)OC(=O)[C@H](C)N(C)C(=O)[C@@H](C)OC(=O)[C@H](C)N(C)C(=O)[C@@H](Cc2ccccc2)OC(=O)[C@H](C)N(C)C1=O	0.5	–	–
6.6	CCC(C)[C@H]1C(=O)O[C@H](Cc2ccccc2)C(=O)N(C)[C@@H](C(C)CC)C(=O)O[C@H](C)C(=O)N(C)[C@@H](C(C)CC)C(=O)O[C@H](Cc2ccccc2)C(=O)N(C)[C@@H](C(C)CC)C(=O)O[C@@H](C)C(=O)N1C (stereo partly specified)	–	1	Activity (Ovis aries [5]): 5
5.5	CC(C)[C@H]1C(=O)O[C@H](Cc2ccccc2)C(=O)N(C)[C@@H](C(C)C)C(=O)O[C@H](C)C(=O)N(C)[C@@H](C(C)C)C(=O)O[C@H](Cc2ccccc2)C(=O)N(C)[C@@H](C(C)C)C(=O)O[C@@H](C)C(=O)N1C	–	1	Activity (Ovis aries [3]): 0.25
4.6	CC(C)C[C@H]1C(=O)O[C@H](Cc2ccccc2)C(=O)N(C)[C@@H](C)C(=O)O[C@@H](C)C(=O)N(C)[C@@H](C)C(=O)O[C@H](Cc2ccccc2)C(=O)N(C)[C@@H](CC(C)C)C(=O)O[C@H](C)C(=O)N1C	0.5	–	–
8.6	CC(C)C[C@H]1C(=O)O[C@H](Cc2ccccc2)C(=O)N(C(C)C)[C@@H](CC(C)C)C(=O)O[C@H](C)C(=O)N(C(C)C)[C@@H](CC(C)C)C(=O)O[C@H](Cc2ccccc2)C(=O)N(C(C)C)[C@@H](CC(C)C)C(=O)O[C@@H](C)C(=O)N1C(C)C	–	–	Activity (Ovis aries [7]): 1
5.9	C[C@@H]1OC(=O)[C@H](Cc2ccccc2)N(C)C(=O)[C@@H](Cc2ccccc2)OC(=O)[C@H](Cc2ccccc2)N(C)C(=O)[C@@H](C)OC(=O)[C@H](Cc2ccccc2)N(C)C(=O)[C@@H](Cc2ccccc2)OC(=O)[C@H](Cc2ccccc2)N(C)C1=O	5	–	–
5.5	CCC[C@H]1C(=O)O[C@H](Cc2ccccc2)C(=O)N(C)[C@@H](CC(C)C)C(=O)O[C@H](C)C(=O)N(C)[C@@H](CC(C)C)C(=O)O[C@H](Cc2ccccc2)C(=O)N(C)[C@@H](CCC)C(=O)O[C@@H](C)C(=O)N1C	–	0.5	Activity (Ovis aries [5]): 0.1
5.1	CCC[C@H]1C(=O)O[C@H](Cc2ccccc2)C(=O)N(C)[C@@H](CCC)C(=O)O[C@H](C)C(=O)N(C)[C@@H](CCC)C(=O)O[C@H](Cc2ccccc2)C(=O)N(C)[C@@H](CCC)C(=O)O[C@@H](C)C(=O)N1C	0.5	–	–

SMILES	logD [2]	Activity (Ovis aries [4])	Activity (Ovis aries [6])	also measured
CC(C)C[C@H]1C(=O)O[C@H](Cc2ccccc2)C(=O)N(C)[C@@H](CC(C)C)C(=O)O[C@H](C)C(=O)N(C)[C@@H](CC(C)C)C(=O)O[C@H](Cc2ccccc2)C(=O)N(C)[C@@H](CC(C)C)C(=O)OC(C)C(=O)N1C (single isomer, unassigned)	5.9	–	0.1	Activity (Ovis aries [8]): 0.1

Source: ChEMBL document CHEMBL1130801, “PF1022A--a novel anthelmintic cyclooctadepsipeptide. Modification and exchange of the N-methyl leucine residues” (Bioorg Med Chem Lett, 1998)
